Where two headings read alike, the source gives them in different places.
Tests used:
Type in all cases: cell-based, human
MRC-5 fibroblasts = assay: DNA synthesis / cell cycle, Muse cell cycle kit; details: two-day treatment with BrdU
Description: The […] […] Autophagy and Cell cycle analysis: Autophagy (using MuseTMM Autophagy LC3-antibody based Kit, Merck Millipore) and cell cycle (Muse® Cell Cycle Kit, Merck Millipore) experiments were performed according to manufacturer's instructions.

MRC-5 cells = assay: Beta-galactosidase staining; details: 8 days of BrdU treatment
Description: Furthermore, the inventors validated the use of BrdU-induced DNA-damage as being sufficient to induce cellular senescence. […] The results evidence that the cells treated with BrdU underwent cell cycle arrest, as evidenced by both a ˜70% reduction in the number of cells in S-phase, and the induction of beta-galactosidase activity.
Beta-Gal staining: Beta-Galactosidase staining of BrdU-treated MRC-5 cells was performed by Senescence B-Galactosidase Staining Kit (#9860, Cell Signalling Technology Inc.) and was done according to manufacturer's protocol.

senescent MRC-5 cells [1] = assay: SRB assay, viability of BrdU-induced senescent MRC-5 fibroblasts
Description: (§1) Bromodeoxyuridine (5-bromo-2′-deoxyuridine), also known as BrdU, may be used to induce senescence. BrdU is an analog of the nucleoside thymidine commonly used to identify proliferating cells. BrdU induces controlled DNA damage, and drives cells towards senescence with high efficiency. The BrdU assay of the present approach calls for subjecting normal fibroblasts to prolonged culture (8-days) in the presence of BrdU at 100 μM to induce controlled DNA-damage and senescence. […] Then, isogenically-matched cultures of normal and senescent fibroblasts may be used for drug screening to identify drugs having senolytic activity. Senolytic activity may be detected using the sulforhodamine B assay, also known in the art as the SRB assay. This assay measures the amount of protein remaining attached to the tissue-culture dishes, and is a surrogate marker for cell viability. This approach may be used to rapidly screen compounds, including clinically-approved drugs, such as, for example, antibiotics. […] It should be appreciated that the present approach may be used to screen other compounds.
After that, the SRB assay was performed to determine the effects of the drug on cell viability. […] The scale bar in the upper-right of FIGS. 3B and 3C represents 20 μm.
After the 5-day exposure, the SRB assay was performed to determine the effects of the drug on cell viability. […] The * indicates p<0.05 in FIG. 4.
MRC-5 or BJ cells were plated into 24-well plates. Next day, half of the plate was treated with 100 μM of BrdU while control wells were treated with vehicle only (DMSO) and incubated for 8 days at 37° C. in a 5% CO2 humidified atmosphere. […] BrdU is washed out before the drug treatments.
Sulphorhodamine B assay: After the incubation of the plates cell viability was measured by Sulphorhodamine B assay (SRB). The assay is based on the measurement of cellular protein contents. Cells were fixed with 10% Trichloroacetic acid (TCA) for 1 hour at 4 °C, and were dried overnight at room temperature. Then, plates were incubated with SRB for 30 min, washed twice with 1% acetic acid and air dried for at least 1 h. Finally, the protein-bound dye was dissolved in a 10 mM Tris, pH 8.8, solution and read using a plate reader at 540-nm.

[2] = test system: normal MRC-5 lung fibroblasts; assay: SRB assay, viability of normal MRC-5 fibroblasts; details: 100 μM, 5 days
Description: as §1, with “compounds. […]” for “compounds.”
Sulphorhodamine B assay: After the incubation of the plates cell viability was measured by Sulphorhodamine B assay (SRB). […] Finally, the protein-bound dye was dissolved in a 10 mM Tris, pH 8.8, solution and read using a plate reader at 540-nm.

senescent MRC-5 cells [3] = assay: xCELLigence real-time cell analysis, senescent (BrdU-treated) MRC-5 fibroblasts; details: 90 μM, 5 days after BrdU wash out
From the text: (§2) In further application of the present approach, the selectivity of azithromycin towards senescent cells was validated using the xCELLigence system. Because senescent cells undergo the so-called senescence-associated secretory phenotype (SASP), which involves dramatic increases in the synthesis and secretion of proteins, the inventors assessed whether the protein measurement assay system under-estimates the senolytic activity of tested compounds. […] The normalized cell index for the control was noticeably higher immediately after treatment, and coincided with the BrdU-only curve until about hour 235. […] For the data shown in FIGS. 9A and 9B, the **** indicates p<0.001. The real-time xCELLigence assay system thus compliments the more static SRB assay, and offers a more direct visualization of the potential senolytic effects of compounds during drug screening. The xCELLigence assays were also used to confirm senolytic activity for roxithromycin and telithromycin. […] MRC-5 fibroblasts were used for these assays. […] Note that in FIG. 10A. * indicates p<0.01. From top to bottom at time 249 hours, the lines represent the control, BrdU-only, Control with roxithromycin (90 μM), and BrdU with roxithromycin. […] The same approach was used to confirm senolytic activity for telithromycin. […] This approach allows the quantification of the onset and kinetics of the cellular response. […]

[4] = test system: normal control MRC-5 cells; assay: xCELLigence real-time cell analysis, normal MRC-5 fibroblasts; details: 90 μM
From the text: as §2

For `O=c1[nH]c(=O)n([C@H]2C[C@H](O)[C@@H](CO)O2)cc1Br` [BrdU, 5-bromo-2′-deoxyuridine], the “reduction of DNA synthesis” value (MRC-5 fibroblasts) was ~70% and the “beta-galactosidase staining (biomarker of cellular senescence)” value (MRC-5 cells) was “positively stained”.
In the case of `CC[C@H]1OC(=O)[C@H](C)[C@@H](O[C@H]2C[C@@](C)(OC)[C@@H](O)[C@H](C)O2)[C@H](C)[C@@H](O[C@@H]2O[C@H](C)C[C@H](N(C)C)[C@H]2O)[C@](C)(O)C[C@@H](C)C(=O)[C@H](C)[C@@H](O)[C@]1(C)O` [Erythromycin, erythromycin], the “senolytic activity in the screening assay” value (“senolytic activity” for short) (senescent MRC-5 cells [1]) is reported as “did not show any senolytic activity”, the “Viability of senescent MRC-5 cells (% versus control)” value (“Viability … (% versus control)” for short) (senescent MRC-5 cells [1]; 50 μM) is reported as 100% and the “Viability … (% versus control)” value (senescent MRC-5 cells [1]; 100 μM) is reported as 100%.
For `CC[C@H]1OC(=O)[C@H](C)[C@@H](O[C@H]2C[C@@](C)(OC)[C@@H](O)[C@H](C)O2)[C@H](C)[C@@H](O[C@@H]2O[C@H](C)C[C@H](N(C)C)[C@H]2O)[C@](C)(O)C[C@@H](C)/C(=N\OCOCCOC)[C@H](C)[C@@H](O)[C@]1(C)O` [Roxithromycin, roxithromycin], the “Viability … (% versus control)” value (senescent MRC-5 cells [1]; 50 μM) was 100%, the “effect on senescent MRC-5 cell viability” value (senescent MRC-5 cells [1]; 50 μM, 5 days) was “no effect” and the “Viability … (% versus control)” value (senescent MRC-5 cells [1]; 100 μM) was 30.99%. For the same compound, the “senolytic activity” value (senescent MRC-5 cells [1]; 100 μM) was “have senolytic activity”, the “effect on viability of normal MRC-5 fibroblasts” value [2] was “small effect” and the “senescent MRC-5 cells targeted (final cell index)” value (senescent MRC-5 cells [3]) was 82%. For the same compound, the “effect on viability of normal MRC-5 fibroblasts (final cell index)” value [4] was “minimal effect”.
In the case of `CC[C@H]1OC(=O)[C@H](C)C(=O)[C@H](C)[C@@H](O[C@@H]2O[C@H](C)C[C@H](N(C)C)[C@H]2O)[C@](C)(OC)C[C@@H](C)C(=O)[C@H](C)[C@H]2N(CCCCn3cnc(-c4cccnc4)c3)C(=O)O[C@]12C` [Telithromycin, telithromycin], the “senolytic activity” value (senescent MRC-5 cells [1]) is reported as “showed beneficial senolytic activity”, the “senescent MRC-5 cells targeted (final cell index)” value (senescent MRC-5 cells [3]) is reported as 100% and the “effect on viability of normal MRC-5 fibroblasts (final cell index)” value [4] is reported as “negligible impact”.
